Entries after “also recorded” stand apart in the source; their conditions may differ.
What was measured:
[1] = tested on: mammalian glucose-6-phosphate dehydrogenase (G6PDH); details: cited from earlier work
[2] = tested on: human lymphocytes (Epstein-Barr virus-induced transformation); details: cited from earlier work
[3] = DMBA-initiated and TPA-promoted; cited from earlier work
[4] = topical, complete carcinogenesis model; cited from earlier work
[5] = target: purified bovine adrenal G6PDH (Bos taurus, UniProt F1MMK2); experiment: G6PDH inhibition test; type: biochemical; details: individual determinations
Chain of purified bovine adrenal G6PDH (F1MMK2 31-70): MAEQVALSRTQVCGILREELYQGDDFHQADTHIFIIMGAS
Chain of purified bovine adrenal G6PDH (F1MMK2 101-575): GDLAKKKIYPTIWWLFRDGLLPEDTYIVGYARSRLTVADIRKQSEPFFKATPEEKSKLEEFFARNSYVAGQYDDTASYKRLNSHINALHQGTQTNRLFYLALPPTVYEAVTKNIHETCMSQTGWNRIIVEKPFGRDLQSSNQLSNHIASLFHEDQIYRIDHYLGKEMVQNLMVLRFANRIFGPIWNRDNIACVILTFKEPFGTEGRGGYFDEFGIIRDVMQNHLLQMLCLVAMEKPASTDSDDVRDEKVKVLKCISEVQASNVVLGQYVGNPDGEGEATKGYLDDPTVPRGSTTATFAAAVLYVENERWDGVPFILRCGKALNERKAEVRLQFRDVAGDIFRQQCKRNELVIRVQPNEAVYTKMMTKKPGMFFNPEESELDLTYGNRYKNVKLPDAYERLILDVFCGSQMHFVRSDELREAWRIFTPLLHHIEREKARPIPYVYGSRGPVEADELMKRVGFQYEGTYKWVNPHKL
Text: The compound listed below are screened as inhibitors of purified bovine adrenal G6PDH activity as one predictor of cancer preventive action. The assay for testing the inhibition of purified bovine adrenal G6PDH is according to the procedure by Oertell, G. W. and Rebelein, I. in Biochem. Biophys. Acta, 184, 459-460 (1969).

[6] = Estrogenic and anti-estrogenic activity, uterine weight; type: in vivo, rat (female CD); details: Table 2a; 60 mg/kg s.c. for 3 days; control 1.95 ± 0.22; DHEA significantly greater than control, p < 0.001
Experimental: Estrogenic and Anti-Estrogenic Activity
Female CD rats, 26-27 days old, were injected subcutaneously for 3 days with one of the compounds of the present invention at 60 mg/kg in propylene glycol. Controls received propylene glycol alone. On the 4th day, the rats were killed and the uteri were dissected out and weighed.

[7] = tested on: mouse epidermis (TPA stimulated 3H-thymidine incorporation); experiment: TPA stimulation of 3H-thymidine incorporation in mouse epidermis, oral steroid; type: in vivo, mouse (male ICR); details: Table 9, no steroid 55.1, TPA alone 118
Experimental: Tumor promoters, such as TPA, stimulate hyperplasia and DNA synthesis when applied to the skin, and it is believed that this stimulation is an important step in the enhancement of tumorigenesis.
Male ICR mice were orally intubated with steroid suspended in sesame oil (0.5 ml/mouse) at the indicated dose. Mice not receiving steroid were given sesame oil alone. One hour later mice received topical application of TPA and 20 hours later the rate of ^3 H-thymidine incorporation into the epidermis was determined as described in Pashko, L. L., Schwartz, A. G., Abou-Gharbia, M., and Swern, D. (1981), Inhibition of DNA synthesis in mouse epidermis and breast epithelium by dehydroepiandrosterone and related steroids, Carcinogenesis, 2,-717-721.
Experimental conditions are the same as in Table 3.

mouse skin DNA = experiment: (3H) DMBA binding to skin DNA; type: in vivo, mouse (A/J); details: oral, mice, doses well below 400 mg/kg
[8] = Anti-obesity action, body weight, female Balb/c mice; type: in vivo, mouse (female Balb/c); details: 0.25% in diet
Experimental: Female Balb/c (8 weeks old) mice were obtained from
the Jackson Laboratory and were housed in polycarbonate cages
(6 mice/cage) in animal quarters maintained at 24 ± 1° C. with
12 hours of light and 12 hours of darkness each day. One
week after arrival, the mice were placed on a diet containing
either DHEA, 8354, or without steroid. Animals were weighed

[9] = Liver weight after three weeks of diet treatment; type: in vivo, mouse (female Balb/c); details: 0.25% of diet
Experimental: (§1) Female Balb/c mice were housed in polycarbonate cages (6/mice/cage) in animal quarters maintained at 24°±1° C. with 12 hours of light and 12 hours of dark each day. The mice were placed on a diet containing either DHEA, 8354, A, B clofibrate or with no addition. Three weeks later the mice were killed, the livers were perfused with cold saline, weighed, and 5% liver homogenates were prepared for the determination of catalase activity by the spectrophotometric method of Luck (H. Luck, in Method in Enzyme Analysis, H. U. Bergmeyer, Ed. (Verlag Chemie, Weinheim/Bergstrasse, Germany, 1965)). Total protein was measured by the method of Lowry, et al. (O. H. Lowry, N. J. Rosebrough, A. L. Farr, R. J. Randall, J. Biol. Chem., 193, 265 (1951)).

liver catalase = experiment: Liver catalase activity after three weeks of diet treatment; type: in vivo, mouse (female Balb/c); details: 0.25% of diet
Experimental: as §1

[10] = Estrogenic / androgenic side-effects, general statements; details: in vivo
[11] = Anti-weight effect in mice, general statements; type: in vivo, mouse
Text: (Table 9 vs Table 5 and Table 6). […] Thus the cancer preventive the cancer preventive effect of DHEA may result indirectly from its anti-weight action rather than from a direct effect of DHEA or target cells.

[12] = after carcinogen; cited from earlier work
[13] = in vivo; cited from earlier work

## C[C@]12CC[C@H](O)C[C@@H]1CC[C@@H]1[C@@H]2CC[C@]2(C)C(=O)C(Br)C[C@@H]12 (some centres unmarked) [16-bromo-epiandrosterone]
[1]
  inhibition of mammalian G6PDH: more potent inhibitor of mammalian G6PDH than DHEA
[2]
  inhibition of Epstein-Barr virus-induced transformation: inhibitors of Epstein-Barr virus-induced transformation of human lymphocytes

## C[C@H]1CC[C@@]2(C)C(=CC[C@@H]3[C@@H]2CC[C@]2(C)C(=O)CC[C@@H]32)C1 [3β-methylandrost-5-en-17-one]
[3]
  skin papilloma formation: inhibit
[4]
  DMBA produced papillomas and carcinomas: inhibits DMBA produced papillomas and carcinomas

## C[C@]12CCCCC1=CC[C@@H]1[C@@H]2CC[C@]2(C)C(=O)[C@H](F)C[C@@H]12 [Compound 8354]
[5]; 10^-5 M
  Percent Inhibition of G6PDH: 83%
[5]; 10^-5 M, read-out: Percent Inhibition of G6PDH
  inhibition at 10 µM: 79%
[5]; 10^-6 M
  Percent Inhibition of G6PDH: 77%
[5]; 10^-6 M, read-out: Percent Inhibition of G6PDH
  inhibition at 1 µM: 75%
[6]
  Mean Uterine Weigh ± S.D.: 1.93 ± 0.29
[7]; oral 25 mg/kg
  SPECIFIC ACTIVITY, TPA stimulated 3H-thymidine incorporation: 47.9 ± 2.0 cpm/ug DNA
[7]; oral 50 mg/kg
  SPECIFIC ACTIVITY, TPA stimulated 3H-thymidine incorporation: 36.2 ± 1.4 cpm/ug DNA
[7]; oral 100 mg/kg
  SPECIFIC ACTIVITY, TPA stimulated 3H-thymidine incorporation: 15.0 ± 6.3 cpm/ug DNA
Mouse skin DNA
  effect on 3H-DMBA binding to skin DNA: inhibit ^3 H-DMBA binding to skin DNA
[8]; week 0, control 17.5 ± 1.4
  mean weekly weight ± S.D.: 17.4 ± 0.6 grams
[8]; week 1, control 19.9 ± 1.2
  mean weekly weight ± S.D.: 16.9 ± 1.0 grams
[8]; week 2, control 20.6 ± 1.0
  mean weekly weight ± S.D.: 17.8 ± 0.8 grams
[8]; week 3, control 21.8 ± 0.8
  mean weekly weight ± S.D.: 18.0 ± 1.3 grams
[9]; control 0.057 ± 0.006, DHEA p < 0.05, clofibrate p < 0.002 vs control
  LIVER WEIGHT: 0.066 ± 0.005 gm/gm body weight
[9]; mice
  liver weight, in words: no effect on liver weight; also recorded: neither increased liver weight
Liver catalase; control 31.1 ± 6.7, DHEA p < 0.05, clofibrate p < 0.001 vs control
  CATALASE ACTIVITY: 29.2 ± 2.6 Units per mg protein
Liver catalase; mice
  catalase activity, in words: no effect on liver weight or catalase activity
[10]
  estrogenic and androgenic side-effects: lacking the estrogenic and androgenic side-effects of DHEA
[11]; mouse, in vivo
  activity as an anti-obesity agent relative to DHEA: several times more active than DHEA as an anti-obesity agent
[11]; oral, mice
  anti-weight effect at the cancer preventive dosages: possible exception

## CCCCC(CC)COC(=O)c1ccccc1C(=O)OCC(CC)CCCC (centres unmarked) [di(2-ethylhexyl)-phthalate]
[12]
  liver basophilic lesions, enzyme-negative: also produced
[13]
  effect on liver (type of hepatomegaly): Typical peroxisome proliferators

Reference: patent US5744462A, “Steroids useful as anti-cancer and anti-obesity agents” (Research Corporation Technologies, Inc., priority 1995, dated 1998)
